Results from EP0442962B1, “LIPOSOMAL RADIOLOGIC CONTRAST AGENTS” (UNGER, Evan C, priority 1988, dated 1990).

Legend:
Male Wistar rats = assay: In vivo MR contrast enhancement of microemulsified liposomes at 0.5 Tesla, Example 9; conditions: control, dose of 0.1 mmoles/kg; Figure 5
Description: All in vivo imaging was performed on a Toshiba MR-50A 0.5 Tesla whole body scanner. Scan parameters were TR = 400 msec TE = 15 msec, 5 mm slice, 1 mm interslice gap, 15 cm field of view with 4 acquisitions using a receive-only surface coil.
Male Wistar rats were scanned in the supine position, and signal intensities of liver, kidney and paraspinal muscle as well as urine, were measured pre and post contrast, with post contrast intervals comprising 15 minutes, 1 hour, 4 hours, 24 hours and 48 hours.
Injections of liposomes prepared as described above were made at concentrations of 0.1, 0.05 and 0.025 mM/kg, based on the weight of the rats, and were carried out by tail vein injection using a 26 gauge butterfly needle. The liposomes were injected over a period of approximately two minutes, and were first diluted with an equal volume of normal saline immediately prior to injection.

Male buffalo rats = assay: In vivo MR contrast enhancement (signal intensity pre and post contrast), Example 3; conditions: for Liver + Muscle (ratio of liver enhancement to muscle enhancement) / Liver enhancement / Muscle enhancement (paraspinal muscle): scans 30 min after I.V. injection
Description: All in vivo imaging was performed on a Siemens 1.5 Tesla magnet (Iselin, N.J.). Spin echo technique was utilized for both T1- and T2-weighted imaging. T1-weighted sequences utilized parameters TR/TE: 400 msec/16 msec, 4 acquisitions, 256 x 256 matrix 16 cm field view for 2 mm thick slices. For T1 calculations, images were acquired using a fixed TE of 28 msec with TR varying from 300, 500, 1500 and 3500 msec. For T2 calculations a fixed TR of 3500 msec was used with TE values of 28, 45, 70, 90 and 150 msec. T1 and T2 calculations were preformed using the software on the Magnetom System (Iselin, N.J.) by selecting a region of interest on the CRT monitor.
Male buffalo rats, weighing approximately 450 grams, were scanned using a 7.5 cm circular surface coil. The animals were scanned in the supine position, and signal intensities of liver, paraspinal muscle, kidney, renal pelvis, bladder and vascular structures were measured pre and post contrast. Rats were imaged pre and post contrast injection of either 0.4 µ Gd-DTPA liposomes (8 rats) or free Gd-DTPA (2 rats).
Injections of the 0.4 µ liposomes prepared in Example 1 were performed by tail vein injection using a 26 gauge butterfly needle. Gd-DTPA liposomes were injected over a period of approximately two minutes; liposomes were diluted with an equal volume of normal saline immediately prior to injection.

Hepatic Metastases = assay: Blind study detection of hepatic metastases on MR images pre and post contrast by 5 radiologists, Example 7; format: in vivo, rat; conditions: for Accuracy Post: includes adjustment for false positives; for #Post (number of metastases detected on Post contrast scans): one rat per dose, 5 radiologists; for Sensitivity Post: percentage of lesions detected on Post contrast scans
Source text: The cell line employed, C5, is a clonal derivative of a rat liver epithelial cell line initially derived from the livers of newborn Fisher rats and subsequently transformed in vitro by transfection with a plasmid containing the T24ras gene driven by the mouse metallothionein promotor. See, Li et al., P.N.A.S., Vol. 35, pp. 344 (1988); Reynolds et al., Oncogene, Vol. 323, pp. 323-330 (1987).
The tumors used in this study were generated by injecting 3 x 10⁵ cells into the superficial lobe of rat livers. Three separate injections of 10⁵ cells were made within an approximate area of 0.5 cm² under direct visualization. The tumors were allowed to grow for 14 to 17 days before imaging followed by sacrifice.
MR imaging was performed on a whole body 1.5 T Siemens Magnetom (Erlangen, West Germany) using a 15 cm Helmholtz receive only coil. Spin echo technique was used with TR/TE of 400 msec/17 msec, 2 mm slices with 4 acquisitions. Images were obtained pre and post contrast in both axial and coronal planes with post contrast images obtained from 5 to 60 minutes post contrast.
Rats were lightly sedated with ether and then fully sedated with I.P. Ketamine/Rompun 0.10 ml/100 g body weight. Contrast injections were performed by tail vein over two minutes with volume approximately 0.5 ml. Doses were as follows: free Gd-DTPA 0.5 and 0.2 mM/kg, 400 nm Gd-DTPA liposomes 0.5, 0.2 and 0.1 mM/Kg and 70 nm Gd-DTPA liposomes 0.5 and 0.2 mM/Kg with one rat injected with each dose.
Pre and post contrast images were separated and, in a blind study, five radiologists experienced in interpreting MR and oncologic imaging were given the MR images to interpret. The MR scans were presented to the radiologists randomly without knowledge of path findings or contrast agent used. The radiologists were instructed to count the number of metastases, plot lesion locations and measure lesion size. The number and sizes of lesions detected were then correlated with the histologic sections and the true number of metastases detected was determined for pre and post contrast scans. The Mann-Whitney test was used to test for statistical significance of results for lesion detection pre and post contrast.
Immediately after imaging, the rats were sacrificed by ether overdose and the livers removed and fixed in 10% formalin. The gross liver specimens were photographed and sectioned in the coronal plant at 2 mm intervals. The number of lesions were counted and size of lesions were measured to correlate with findings on MR images. Microscopic sections were prepared using hematoxylin and eosin stain and studied with light microscopy.

[1] = In vitro relaxivity from phantom imaging at 1.5 Tesla, Example 4; format: physicochemical; conditions: phantoms in PBS, T1
Description: Phantoms were prepared by diluting the vesicle preparation with Dulbecco's phosphate buffered saline (PBS) (Gibco), so as to obtain several samples for each vesicle preparation with an effective concentration of Gd-DTPA in the range 0.2-2 mmoles. Approximately 10 ml of each dilution was placed in 20 ml plastic syringes (Becton Dickinson), which were sealed with parafilm to prevent leakage and placed in a custom-built acrylic phantom holder which positioned the syringes with their long-axes horizontal within the bore of the magnet.
Phantoms were imaged using a Siemens 1.5 Tesla Magnetom whole body scanner (Iselin, N.J.) using body coil. For T1 calculations, images were acquired using spin-echo sequences with a fixed TE of 17 msec and TR values of 100, 300, 450, 600, 900, 1200, 1800, 2500 and 3500 msec. Other parameters were 4 acquisitions, 256 x 256 matrix, 30 cm field of view and 10 mm slices.

Substance: gadolinium diethylenetriamine pentaacetic acid [Free Gd-DTPA]
- enhancement on scans (tissue to muscle ratio) (Male Wistar rats): no significant enhancement of the liver, kidney and urine
- Liver + Muscle (ratio of liver enhancement to muscle enhancement) (Male buffalo rats; Dose 0.109 mM/Kg): -19.3%
- Liver enhancement (Male buffalo rats; Dose 0.109 mM/Kg): 0.0%
- Muscle enhancement (paraspinal muscle) (Male buffalo rats; Dose 0.109 mM/Kg): 22.4%
- Liver + Muscle (ratio of liver enhancement to muscle enhancement) (Male buffalo rats; Dose 0.218 mM/Kg): 8.2%
- Liver enhancement (Male buffalo rats; Dose 0.218 mM/Kg): 11.6%
- Muscle enhancement (paraspinal muscle) (Male buffalo rats; Dose 0.218 mM/Kg): 3.1%
- enhancement on scans after injection (Male buffalo rats; two control animals, 0.1 and 0.2 millimoles/kg): enhancement of renal cortex, renal pelvis and urinary bladder, but no appreciable enhancement of liver or vascular structures
- Accuracy Post (Hepatic Metastases; Dose 0.2 mm/kg): 0±0%
- #Post (number of metastases detected on Post contrast scans) (Hepatic Metastases; Dose 0.2 mm/kg): 0±0 isointense
- Sensitivity Post (Hepatic Metastases; Dose 0.2 mm/kg): 0±0%
- Accuracy Post (Hepatic Metastases; Dose 0.5 mm/kg): 40.0±23.5%
- #Post (number of metastases detected on Post contrast scans) (Hepatic Metastases; Dose 0.5 mm/kg): 2.80±1.64
- Sensitivity Post (Hepatic Metastases; Dose 0.5 mm/kg): 40.0±23.5%
- lesion detection by the five radiologists (Hepatic Metastases; post versus pre contrast, Mann-Whitney test): statistically significant reduction in lesion detection
- Relaxivity [1]: 2.79 sec^-1 x mM^-1
